According to patent publication US12240846B2 (Enliven Inc., priority 2020, dated 2025):

Assays:
ABL1 (T315I) = ABL1 (T315I) (Homo sapiens, UniProt P00519, T315I); experiment: Luminescence-based ABL kinase assay (300 μM ATP), ADP-Glo; assay type: biochemical
ABL1 = target: T1, ABL1 (Homo sapiens, UniProt P00519); experiment: as above; assay type: biochemical
T1 construct: purchased Carna Biosciences
Source text: Compounds were serially diluted in DMSO. […] Luminescence signal positively correlates with kinase activity.

K562 cells = experiment: K562 cell proliferation assay (CellTiter-Glo); assay type: cell-based; conditions: Homo sapiens, K562 cell viability, 72 hours, read-out: Cell Line (IC50, nM) K562
Experimental: (§1) K562 and HL60 Cell Proliferation Assay
(§2) K562 and HL60 cells, cultured in Iscove's Modified Dulbecco's Media (IMDM) supplemented with 10% FBS, were harvested at 50-80% confluency and plated at 2,000 cells per well (K562) or 1,500 cells per well (HL60) in 384-well tissue culture plates. A subset of wells contained media only (low control, LC). […] The plates were placed in a 37° C. incubator with 5% CO2 for 72 hours. Cell viability was measured using a CellTiter-Glo luminescent cell viability assay (Promega), which allows for relative quantification of metabolically active cells by luminescence-based measurements of intracellular ATP concentrations. Briefly, plates were removed from the incubator and equilibrated for 15 minutes at room temperature prior to the addition of 40 μL of CellTiter-Glo reagent. Plates were then incubated for 30 minutes at room temperature. Luminescence was measured using an EnSpire plate reader (Perkin Elmer). As noted above, luminescence values from wells with DMSO only or media without cells were used as high and low controls (HC and LC), respectively. Normalized percent viability was calculated as follows: percent viability=100×(Lumsample−LumLC)/(LumHC−LumLC).

HL60 cells = experiment: HL60 cell proliferation assay (CellTiter-Glo); assay type: cell-based; conditions: Homo sapiens, HL-60, HL60 cell viability, 72 hours, read-out: Cell Line (IC50, nM) HL60
Experimental: as §1, §2

IC50 (ABL1 (T315I)) | IC50 (ABL1) | IC50 (K562 cells) | IC50 (HL60 cells) | SMILES
75.1 nM | 59.4 nM | 165 nM |  | COc1ccccc1-c1cc2cc(NC(=O)[C@@H]3C[C@H]3CN(C)C)ncc2n1C (single isomer, unassigned) [Compound 132]
2330 nM | 153 nM | 456 nM |  | COc1nc(C)c(F)c(OC)c1-c1cc2cc(NC(=O)[C@@H]3C[C@@H]3F)ncc2n1C [Compound 101, (1S,2S)-2-fluoro-N-[2-(5-fluoro-2,4-dimethoxy-6-methylpyridin-3-yl)-1-methylpyrrolo[2,3-c]pyridin-5-yl]cyclopropane-1-carboxamide]
 |  |  | 240 nM | COc1nc(N(C)C)nc(OC)c1-c1cc2cc(NC(=O)[C@@H]3C[C@@H]3F)ncc2n1C [Compound 104, (1S,2S)-N-(2-(2-(dimethylamino)-4,6-dimethoxypyrimidin-5-yl)-1-methyl-1H-pyrrolo[2,3-c]pyridin-5-yl)-2-fluorocyclopropane-1-carboxamide]
233 nM | 49.2 nM | 66.2 nM |  | COc1nc(C2CC2)nc(OC)c1-c1cc2cc(NC(=O)[C@@H]3C[C@@H]3F)ncc2n1C [Compound 100, (1S,2S)-N-(2-(2-cyclopropyl-4,6-dimethoxypyrimidin-5-yl)-1-methyl-1H-pyrrolo[2,3-c]pyridin-5-yl)-2-fluorocyclopropane-1-carboxamide]
62.9 nM | 20.4 nM |  |  | COc1cc2ncsc2cc1-c1cc2cc(NC(=O)[C@@H]3C[C@@H]3F)ncc2n1C [Compound 69, (1S,2S)-2-fluoro-N-[2-(5-methoxy-1,3-benzothiazol-6-yl)-1-methylpyrrolo[2,3-c]pyridin-5-yl]cyclopropane-1-carboxamide]
85.9 nM | 73.5 nM | 181 nM |  | COc1ccccc1-c1cc2cc(NC(=O)[C@H]3C[C@@H]3CN(C)C)ncc2n1C (single isomer, unassigned) [Compound 133]
64.1 nM | 88.6 nM |  |  | COc1ccccc1-c1cc2cnc(NC(=O)[C@@H]3C[C@@H]3F)cc2n1C [Compound 51, (1S,2S)-2-fluoro-N-[2-(2-methoxyphenyl)-1-methylpyrrolo[3,2-c]pyridin-6-yl]cyclopropane-1-carboxamide]
68.3 nM | 263 nM |  |  | Cc1c(-c2cc3cc(NC(=O)C4CC4)ncc3n2C)ccc2[nH]cnc12 [Compound 19, N-[1-methyl-2-(4-methyl-1H-1,3-benzodiazol-5-yl)pyrrolo[2,3-c]pyridin-5-yl]cyclopropanecarboxamide]
 |  | 27.9 nM |  | COc1cccc(OC)c1-c1cc2cc(NC(=O)[C@H]3C[C@@H]3CN(C)C)ncc2n1C [Compound 135, (J S,2S)-N-(2-(2,6-dimethoxyphenyl)-1-methyl-1H-pyrrolo[2,3-c]pyridin-5-yl)-2-((dimethylamino)methyl)cyclopropane-1-carboxamide]
145 nM | 113 nM |  |  | COc1ccccc1-c1cc2cc(NC(=O)[C@H]3C[C@H]3CN3CCN(C)CC3)ncc2n1C (relative stereo) [Compound 40, cis-N-(2-(2-methoxyphenyl)-1-methyl-1H-pyrrolo[2,3-c]pyridin-5-yl)-2-((4-methylpiperazin-1-yl)methyl)cyclopropane-1-carboxamide]
 |  | 317 nM | 4220 nM | Cc1ccc(F)cc1-c1cc2cc(NC(=O)C3CC3)ncc2n1C [Compound 12, N-[2-(5-fluoro-2-methylphenyl)-1-methylpyrrolo[2,3-c]pyridin-5-yl]cyclopropanecarboxamide]
 |  | 53.1 nM |  | COc1cccc(OC)c1-c1cc2cc(NC(=O)[C@@H]3C[C@H]3CN(C)C)ncc2n1C [Compound 134, (1R,2R)-N-(2-(2,6-dimethoxyphenyl)-1-methyl-1H-pyrrolo[2,3-c]pyridin-5-yl)-2-((dimethylamino)methyl)cyclopropane-1-carboxamide]
412 nM | 123 nM |  |  | COc1nc(OC)c(-c2cc3cc(NC(=O)[C@@H]4C[C@@H]4F)ncc3n2C)c(OC)n1 [Compound 102, (1S,2S)-2-fluoro-N-(1-methyl-2-(2,4,6-trimethoxypyrimidin-5-yl)-1H-pyrrolo[2,3-c]pyridin-5-yl)cyclopropane-1-carboxamide]

Further lines, the compound ahead of its results:

SMILES | IC50 (ABL1 (T315I)) | IC50 (ABL1) | IC50 (K562 cells) | IC50 (HL60 cells)
CCOc1ccccc1-c1cc2cc(NC(=O)C3CC3)ncc2n1C [Compound 3, N-[2-(2-ethoxyphenyl)-1-methylpyrrolo[2,3-c]pyridin-5-yl]cyclopropanecarboxamide] |  |  | 127 nM | 209 nM
Cc1cc(O)ccc1-c1cc2cc(NC(=O)C3CC3)ncc2n1C [Compound 8, N-[2-(4-hydroxy-2-methylphenyl)-1-methylpyrrolo[2,3-c]pyridin-5-yl]cyclopropanecarboxamide] |  |  | 95.6 nM | 59.1 nM
COc1ccnc(OC)c1-c1cc2cc(NC(=O)[C@H]3C[C@@H]3CN3C4CCC3CNC4)ncc2n1C (relative stereo) [Compound 147, Trans-2-((3,8-diazabicyclo[3.2.1]octan-8-yl)methyl)-N-(2-(2,4-dimethoxypyridin-3-yl)-1-methyl-1H-pyrrolo[2,3-c]pyridin-5-yl)cyclopropane-1-carboxamide] | 41.8 nM | 24.4 nM | 152 nM | 
[2H]C([2H])([2H])Oc1ncnc(OC([2H])([2H])[2H])c1-c1cc2cc(NC(=O)[C@@H]3C[C@@H]3F)ncc2[nH]1 [Compound 144, (1S,2S)-N-(2-(4,6-bis(methoxy-d3)pyrimidin-5-yl)-1H-pyrrolo[2,3-c]pyridin-5-yl)-2-fluorocyclopropane-1-carboxamide] |  |  | 1070 nM | > 10000 nM
Cc1cc2[nH]ccc2cc1-c1cc2cc(NC(=O)C3CC3)ncc2n1C [Compound 14, N-(1-methyl-2-(6-methyl-1H-indol-5-yl)-1H-pyrrolo[2,3-c]pyridin-5-yl)cyclopropanecarboxamide] | 124 nM | 29.6 nM |  | 
COc1cccc(F)c1-c1c(C)c2cnc(NC(=O)[C@H]3C[C@H]3F)cc2n1C [Compound 55, (1R,2R)-2-fluoro-N-[2-(2-fluoro-6-methoxyphenyl)-1,3-dimethylpyrrolo[3,2-c]pyridin-6-yl]cyclopropane-1-carboxamide] | 7.24 nM | 71.3 nM |  | 
COc1ccnc(OC)c1-c1cc2cc(NC(=O)[C@H]3C[C@@H]3CN3CC4CC(C3)N4)ncc2n1C (single isomer, unassigned) [Example 135, Enantiomer 1] | 66.7 nM | 30 nM |  | 
COc1ncnc(OC)c1-c1cc2cc(NC(=O)[C@H]3CC3(F)F)ncc2n1C [Compound 137, (1R)-N-[2-(4,6-dimethoxypyrimidin-5-yl)-1-methylpyrrolo[2,3-c]pyridin-5-yl]-2,2-difluorocyclopropane-1-carboxamide] |  |  | 37 nM | 148 nM
[2H]C([2H])([2H])Oc1ncnc(OC([2H])([2H])[2H])c1-c1cc2cc(NC(=O)[C@@H]3C[C@@H]3F)ncc2n1C([2H])([2H])[2H] [Compound 111, (1S,2S)-N-(2-(4,6-bis(methoxy-d3)pyrimidin-5-yl)-1-(methyl-d3)-1H-pyrrolo[2,3-c]pyridin-5-yl)-2-fluorocyclopropane-1-carboxamide] |  |  | 23 nM | 
CCNC(=O)Nc1cc2cc(-c3cccnc3OC)n(C)c2cn1 [Compound 78, 3-ethyl-1-[2-(2-methoxypyridin-3-yl)-1-methylpyrrolo[2,3-c]pyridin-5-yl]urea] | 411 nM | 183 nM |  | 
